Data as given in PMC6427567, “Discovery of novel coumarin derivatives as potent and orally bioavailable BRD4 inhibitors based on scaffold hopping” (Journal of Enzyme Inhibition and Medicinal Chemistry, 2019).

How the values were obtained:
[1] = target: T1, BRD4-full length: recombinant human bromodomain containing protein 4 (bromodomain 1 and 2; aa 2–1362) (Homo sapiens, UniProt O60885); experiment: BRD4 binding assay (AlphaScreen); settings: for IC50 / BRD4 binding activity in words: AlphaScreen assay; for LE (Ligand Efficiency): LE = 1.4 (pIC50/heavy atoms)
T1 construct: (bromodomain 1 and 2; aa 2–1362; Genbank Accesstion # NM_058243); host or cells: Sf9 insect cells
Method: The binding affinity was evaluated by a using AlphaScreen technology […] assay. The biotinylated peptide binding to the reader domain of His-tagged protein is monitored by the singlet oxygen transfer from the Streptavidin-coated donor beads to the AlphaScreen Ni-chelate acceptor beads. Reagent:Reaction buffer:50 mM Hepes, pH7.5, 100 mM NaCl, 0.05% CHAPS, 0.1% BSA, and 1% DMSO (the final DMSO concentration may different depending on compound stock and test concentrations). […] MW = 156.5 kDa. […] Reaction procedure: (1) Deliver 2.5× BRD in wells of reaction plate except No BRD control wells. Add buffer instead. (2) Deliver compounds in 100% DMSO into the BRD mixture by Acoustic technology (Echo550; nanoliter range). Spin down and pre-incubation for 30 min. (3) Deliver 5 × Ligand. Spin and shake. (4) Incubate for 30 min at room temperature with gentle shaking. (5) Deliver 5× donor beads. Spin and shake. (6) Deliver 5 × acceptor beads. Spin and shake. Then gentle shaking in the dark for 60 min. (7) Alpha measurement (Ex/Em = 680/520–620 nm) in Enspire.

[2] = parameters: method as in PMID 23095041; settings: cited from earlier work

O=c1ccc2cc(NS(=O)(=O)c3ccccc3)ccc2o1 [Compound 1, N-(2-oxo-2H-chromen-6-yl)benzenesulphonamide]
IC50 [1]: 6.59 µM
LE (Ligand Efficiency) [1]: 0.35

O=c1ccc2cc(NS(=O)(=O)C3CCCCC3)ccc2o1 [Compound 2, N-(2-oxo-2H-chromen-6-yl)cyclohexanesulphonamide]
IC50 [1]: 19 µM
LE (Ligand Efficiency) [1]: 0.31

O=c1ccc2cc(NS(=O)(=O)C3CCCC3)ccc2o1 [Compound 3, N-(2-oxo-2H-chromen-6-yl)cyclopentanesulphonamide]
IC50 [1]: 17.9 µM
LE (Ligand Efficiency) [1]: 0.33

CCCS(=O)(=O)Nc1ccc2oc(=O)ccc2c1 [Compound 4, N-(2-oxo-2H-chromen-6-yl)propane-1-sulphonamide]
IC50 [1]: 38.5 µM
LE (Ligand Efficiency) [1]: 0.34

CCCCS(=O)(=O)Nc1ccc2oc(=O)ccc2c1 [Compound 5, N-(2-oxo-2H-chromen-6-yl)butane-1-sulphonamide]
IC50 [1]: 30 µM
LE (Ligand Efficiency) [1]: 0.33

O=c1ccc2cc(NS(=O)(=O)c3ccc(Cl)cc3)ccc2o1 [Compound 6, 4-chloro-N-(2-oxo-2H-chromen-6-yl)benzenesulphonamide]
IC50 [1]: 2.97 µM
LE (Ligand Efficiency) [1]: 0.34

COc1ccc(S(=O)(=O)Nc2ccc3oc(=O)ccc3c2)cc1 [Compound 7, 4-methoxy-N-(2-oxo-2H-chromen-6-yl)benzene sulphonamide]
IC50 [1]: 7.31 µM
LE (Ligand Efficiency) [1]: 0.33

CC(C)(C)c1ccc(S(=O)(=O)Nc2ccc3oc(=O)ccc3c2)cc1 [Compound 8, 4-(tert-butyl)-N-(2-oxo-2H-chromen-6-yl)benzene sulphonamide]
IC50 [1]: 5.09 µM
LE (Ligand Efficiency) [1]: 0.30

N#Cc1cccc(S(=O)(=O)Nc2ccc3oc(=O)ccc3c2)c1 [Compound 9, 3-cyano-N-(2-oxo-2H-chromen-6-yl)benzene sulphonamide]
IC50 [1]: 5.03 µM
LE (Ligand Efficiency) [1]: 0.32

O=c1ccc2cc(NS(=O)(=O)c3ccccc3Cl)ccc2o1 [Compound 10, 2-chloro-N-(2-oxo-2H-chromen-6-yl)benzenesulphonamide]
IC50 [1]: 2.21 µM
LE (Ligand Efficiency) [1]: 0.36

COc1ccccc1S(=O)(=O)Nc1ccc2oc(=O)ccc2c1 [Compound 11, 2-methoxy-N-(2-oxo-2H-chromen-6-yl)benzenesulphonamide]
IC50 [1]: 0.98 µM
LE (Ligand Efficiency) [1]: 0.37
lipophilic efficiency (LipE) ([1]; LipE = −lg (IC50) − logP): 3.9
fold more potent than 1 (BRD4 IC50) ([1]; compared with compound 1): approximately 7 fold

O=c1ccc2cc(NS(=O)(=O)c3ccc(Cl)cc3Cl)ccc2o1 [Compound 12, 2,4-dichloro-N-(2-oxo-2H-chromen-6-yl)benzenesulphonamide]
IC50 [1]: 1.77 µM
LE (Ligand Efficiency) [1]: 0.35

O=c1ccc2cc(NS(=O)(=O)c3cccs3)ccc2o1 [Compound 14, N-(2-oxo-2H-chromen-6-yl)thiophene-2-sulphonamide]
BRD4 binding activity in words [1]: low binding activity
IC50 [1]: 9.26 µM
LE (Ligand Efficiency) [1]: 0.35

O=c1ccc2cc(NS(=O)(=O)c3ccc4ccccc4c3)ccc2o1 [Compound 15, N-(2-oxo-2H-chromen-6-yl)naphthalene-2-sulphonamide]
BRD4 binding activity in words [1]: reduction of affinity
IC50 [1]: 12.2 µM
LE (Ligand Efficiency) [1]: 0.28

O=c1ccc2cc(NS(=O)(=O)c3ccc4c(c3)CCO4)ccc2o1 [Compound 16, N-(2-oxo-2H-chromen-6-yl)-2,3-dihydrobenzofuran-5-sulphonamide]
BRD4 binding activity in words [1]: reduction of affinity
IC50 [1]: 18.4 µM
LE (Ligand Efficiency) [1]: 0.28

COc1ccc(NS(=O)(=O)c2ccc3oc(=O)ccc3c2)cc1 [Compound 17, N-(4-methoxyphenyl)-2-oxo-2H-chromene-6-sulphonamide]
IC50 [1]: 32.6 µM
fold decrease in potency compared with 7 (BRD4) ([1]; compared with compound 7): ~5 fold

COc1ccccc1S(=O)(=O)Nc1ccc2c(c1)CN(C)C(=O)N2 [PFI-1]
oral bioavailability (F) [2]: 32%
